These results are taken from publication PMC8757511 (ACS Medicinal Chemistry Letters, 2021).

Series [1] concerns M. tuberculosis strain, H37Ra (ATCC 25177). The series is described as follows: microbe, parasite or virus in culture. Particulars: for MIC: Mycobacterium tuberculosis, ATCC25177|H37RA, read-out: Mtb MIC. Format: cell-based, Mycobacterium tuberculosis.
Series [2] addresses T1, PknB (Mycobacterium tuberculosis, UniProt P9WI81). The series is described as follows: biochemical. It is filed as binding.
Target sequence in this assay (P9WI81 1-331 limits assumed): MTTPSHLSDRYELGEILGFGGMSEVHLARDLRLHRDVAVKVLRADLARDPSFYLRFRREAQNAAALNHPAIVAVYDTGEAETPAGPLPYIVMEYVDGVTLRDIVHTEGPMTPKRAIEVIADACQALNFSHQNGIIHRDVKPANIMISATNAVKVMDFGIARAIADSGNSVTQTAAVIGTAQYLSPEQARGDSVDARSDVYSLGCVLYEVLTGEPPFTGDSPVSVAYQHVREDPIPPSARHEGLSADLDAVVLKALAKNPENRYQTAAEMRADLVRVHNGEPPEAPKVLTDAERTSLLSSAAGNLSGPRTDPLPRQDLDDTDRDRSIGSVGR
Series [3] has as its target T1, PknB. Put plainly: biochemical. It is filed as biochemical.
Target sequence in this assay (P9WI81 1-331 limits assumed): as above
The next series concerns the target Cdk2-Cyclin A (Homo sapiens, UniProt P24941). The series is described as follows: biochemical. Format: biochemical.
Series [4] concerns Zebrafish (Danio rerio) embryos. The settings on record: 5 days.
The nature of another series: physchem. Particulars: pH 7.4, LogD7.4, pH 7.4.
Series [5] deals with 453 human kinases (403 wild-type and 50 mutant). Format: binding. The settings on record: 10 μM, KinomeSCAN.
The subject of series [6] is THP-1 human macrophage cell line.
Series [7] concerns the target T1, PknB. Format: binding. The settings on record: DiscoverX Kd.
Target sequence in this assay (P9WI81 whole entry): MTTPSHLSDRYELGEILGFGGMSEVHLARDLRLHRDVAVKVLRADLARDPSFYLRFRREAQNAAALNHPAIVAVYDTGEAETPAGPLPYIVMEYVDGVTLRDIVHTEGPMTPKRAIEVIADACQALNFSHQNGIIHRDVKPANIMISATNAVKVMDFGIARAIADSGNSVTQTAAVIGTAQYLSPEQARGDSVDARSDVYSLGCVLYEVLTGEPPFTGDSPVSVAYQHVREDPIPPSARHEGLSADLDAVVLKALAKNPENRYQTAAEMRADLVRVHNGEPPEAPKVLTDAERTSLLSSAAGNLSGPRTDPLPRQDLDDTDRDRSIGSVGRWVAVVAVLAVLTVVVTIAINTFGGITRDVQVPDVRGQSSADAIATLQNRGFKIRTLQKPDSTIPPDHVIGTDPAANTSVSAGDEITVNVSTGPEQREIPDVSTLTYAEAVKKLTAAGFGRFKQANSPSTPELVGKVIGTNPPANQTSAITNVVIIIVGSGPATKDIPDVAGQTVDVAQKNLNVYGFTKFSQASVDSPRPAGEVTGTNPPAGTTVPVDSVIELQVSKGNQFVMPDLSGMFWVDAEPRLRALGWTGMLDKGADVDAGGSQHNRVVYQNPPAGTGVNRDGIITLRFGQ

Molecules are shown by their SMILES. In brackets after ≈: the same amount, converted by molar mass. Bounds are passed on as bounds.

Turning to `CN1CCN(c2ccc(Nc3nccc(-c4cccnc4)n3)cc2C(F)(F)F)CC1` [Compound 4], in series [1], the “worse Mtb MIC than 1” value was 2–4 fold.

In general, Kd refers to the equilibrium constant for the complex coming apart. The low end stands for tighter binding, the high end for weaker binding. Broadly, the IC50 is the concentration that gives 50% inhibition. A high value points to weaker potency in that assay. For orientation: Ki means the equilibrium dissociation constant of an inhibitor or competing ligand from its target. Read a high Ki as a looser hold on the target. The term logD denotes lipophilicity at a set pH, counting ionised and neutral species. Compound `CN1CCN(c2ccc(Nc3nccc(-c4ccncc4)n3)cc2C(F)(F)F)CC1` [Compound 5] had a Kd on PknB [2] of 78 nM. Also, in [1], the “worse Mtb MIC than 1” value is 2–4 fold and the MIC was 50 µM (≈ 20.7 µg/mL). Besides, at PknB [3], half-maximal inhibition (IC50) required 2100 nM and the affinity, expressed as Ki, was 580 nM. Moreover, on Cdk2-Cyclin A, the IC50 was 4600 nM. Further, the “% D. rario survival @ 5 μM” value in [4] is recorded as 30%. In the series “physchem”, this compound registered a logD of 3.57.

Consider `CN1CCN(c2ccc(Nc3nccc(-c4ccnc(Cl)c4)n3)cc2C(F)(F)F)CC1` [Compound 6], for which, in series [4], the “% D. rario survival @ 5 μM” value is recorded as about 100%.

For the compound `CNc1cc(-c2ccnc(Nc3ccc(N4CCN(C)CC4)c(C(F)(F)F)c3)n2)ccn1` [Compound 8], the “loss of PknB activity relative to 1” value at PknB [3] (relative to 1) was 6 fold. The “reduction in Cdk2 biochemical inhibition relative to 1” value at Cdk2-Cyclin A is on record as 28 fold.

As to `CN1CCN(c2ccc(Nc3nccc(-c4ccccc4)n3)cc2C(F)(F)F)CC1` [Compound 9], the “selectivity score (S-score) at 1% of control (S(1))” value in series [5] is 0.084. The “reduction in Cdk2 biochemical inhibition relative to 1” value at Cdk2-Cyclin A is recorded as “greater than 28 fold”. For the same compound, the “% D. rario survival @ 5 μM” value in [4] was about 100%.

Take `CN1CCN(c2ccc(Nc3nccc(-c4ccc(Cl)cc4)n3)cc2C(F)(F)F)CC1` [Compound 11]: the “reduction in Cdk2 biochemical inhibition relative to 1” value on Cdk2-Cyclin A is on record as “greater than 28 fold”.

Take `Cc1ccc(-c2ccnc(Nc3ccc(N4CCN(C)CC4)c(C(F)(F)F)c3)n2)cc1` [Compound 12]: in series [1], the MIC was at most 19 µM. On Cdk2-Cyclin A, the “reduction in Cdk2 biochemical inhibition relative to 1” value was “greater than 28 fold”. For the same compound, the “% D. rario survival @ 5 μM” value in [4] came out at 0%.

For `CN1CCN(c2ccc(Nc3nccc(-c4cccc(Cl)c4)n3)cc2C(F)(F)F)CC1` [Compound 16], the MIC in series [1] is at most 19 µM. Further, the “improvement in cytotoxicity over 1” value in [6] (THP-1, relative to 1) is listed as over 2 log unit. The “reduction in Cdk2 biochemical inhibition relative to 1” value on Cdk2-Cyclin A is on record as “greater than 28 fold”.

Regarding `CN1CCN(c2ccc(Nc3nccc(-c4cccc([N+](=O)[O-])c4)n3)cc2C(F)(F)F)CC1` [Compound 19], the MIC in series [1] is at most 19 µM. In series [5], the “selectivity score (S-score) at 1% of control (S(1))” value turned out to be 0.12. At PknB [7], the “affinity for PknB vs GSK3β, mTOR, and Pim1” value was over 100 fold. Also, the “% D. rario survival @ 5 μM” value in series [4] turned out to be 0%.

`CN1CCN(c2ccc(Nc3nccc(-c4ccc5ccccc5c4)n3)cc2C(F)(F)F)CC1` [Compound 20]: in series [1], the “lower MIC than inhibitor 19” value was 2 fold. For the same compound, at PknB [3], the “loss in PknB activity relative to 19” value is reported as 3 fold. Also, the “improvement in THP-1 cytotoxicity relative to 1” value in series [6] (relative to 1) was over 60 fold. In addition, the “% D. rario survival @ 5 μM” value in series [4] is on record as about 100%.
